The test has as its target Tie-2 (Homo sapiens, UniProt Q02763). Nature of the test: Tie-2 tyrosine kinase activity assay (luciferase/luciferin ATP consumption with pEY substrate, or 33P-ATP incorporation). The settings on record: human enzyme Tie-2. It counts as biochemical. As to the method:
One measure of inhibition is Ki. […] The Ki for a compound is determined from the IC50 based on three assumptions. First, only one compound molecule binds to the enzyme and there is no cooperativity. […] Third, the enzymatic rate of the enzyme-inhibitor complex is zero. The rate data (i.e. compound concentration) are fitted to the equation:
[formula] where V is the observed rate, Vmax, is the rate of the free enzyme, I0 is the inhibitor concentration, E0 is the enzyme concentration, and Kd is the dissociation constant of the enzyme-inhibitor complex.
Tyrosine kinase activity is determined by 1) measurement of kinase-dependent ATP consumption by in the presence of a generic substrate such as […], tyrosine (pEY), by luciferase/luciferin-mediated chemiluminescence or; 2) incorporation of radioactive phosphate derived from ^33P-ATP into a generic substrate which has been adsorbed onto the well surface of polystyrene microtiter plates. Phosphorylated substrate products are quantified by scintillation spectrometry.
Inhibition is indicated as IC50 with following key: A=IC50 less than 50 nM, B=IC50 greater than 50 nM, but less than or equal to 1000 nM, C=IC50 greater than 1000 nM, but less than 10,000 nM, D=IC50 10,000 nM or greater, and “-”=no data available. The abbreviation for human enzyme, Tie-2, is defined as tyrosine kinase with immunoglobulin and EGF repeats.
Chain of Tie-2 (Q02763 23-1124): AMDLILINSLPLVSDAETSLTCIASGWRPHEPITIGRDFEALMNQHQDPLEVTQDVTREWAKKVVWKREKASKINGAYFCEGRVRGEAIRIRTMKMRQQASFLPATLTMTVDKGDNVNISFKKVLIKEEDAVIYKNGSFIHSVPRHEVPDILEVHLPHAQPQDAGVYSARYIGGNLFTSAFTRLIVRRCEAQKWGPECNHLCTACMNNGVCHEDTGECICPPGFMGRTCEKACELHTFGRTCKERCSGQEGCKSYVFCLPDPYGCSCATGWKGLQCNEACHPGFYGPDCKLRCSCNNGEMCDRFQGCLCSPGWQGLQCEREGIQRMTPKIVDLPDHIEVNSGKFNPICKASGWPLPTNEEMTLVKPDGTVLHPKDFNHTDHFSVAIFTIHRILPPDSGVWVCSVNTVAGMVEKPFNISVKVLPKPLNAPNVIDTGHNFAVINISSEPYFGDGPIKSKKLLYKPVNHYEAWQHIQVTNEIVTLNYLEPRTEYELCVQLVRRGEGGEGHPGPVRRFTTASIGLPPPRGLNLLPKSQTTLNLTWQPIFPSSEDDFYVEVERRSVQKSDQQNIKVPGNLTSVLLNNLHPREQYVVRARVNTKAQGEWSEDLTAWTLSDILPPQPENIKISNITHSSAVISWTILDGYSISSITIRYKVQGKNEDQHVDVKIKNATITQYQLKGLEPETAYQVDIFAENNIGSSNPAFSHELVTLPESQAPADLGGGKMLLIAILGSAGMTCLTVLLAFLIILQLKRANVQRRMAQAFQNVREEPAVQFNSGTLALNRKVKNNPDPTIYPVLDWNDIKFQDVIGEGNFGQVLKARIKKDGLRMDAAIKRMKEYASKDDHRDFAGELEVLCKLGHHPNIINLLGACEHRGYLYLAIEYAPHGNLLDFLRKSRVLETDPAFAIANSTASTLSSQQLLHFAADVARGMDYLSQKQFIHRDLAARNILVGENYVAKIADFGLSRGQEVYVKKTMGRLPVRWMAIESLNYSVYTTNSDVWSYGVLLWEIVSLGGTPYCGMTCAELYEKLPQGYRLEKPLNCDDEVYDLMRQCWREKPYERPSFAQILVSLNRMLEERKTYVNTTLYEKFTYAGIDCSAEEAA
With `O=C(Nc1cccc(Cl)c1)N1CCN(c2ncccc2OCc2ccncc2)CC1` [Example 105, N-(3-chlorophenyl)-4-{3-[(pyridin-4-ylmethyl)oxy]pyridin-2-yl}piperazine-1-carboxamide], the IC50 is 50 to 1000 nM.

Turning to `C[C@H]1CN(c2nsnc2OCc2ccncc2)CCN1C(=O)Nc1cc(C(F)(F)F)cc(C(F)(F)F)c1` [Example 57, (2S)-N-[3,5-bis(trifluoromethyl)phenyl]-2-methyl-4-{4-[(pyridin-4-ylmethyl)oxy]-1,2,5-thiadiazol-3-yl}piperazine-1-carboxamide], the IC50 lay in the range of 50 to 1000 nM.

Compound `Cc1cc(C)cc(NC(=O)N2CCN(c3nsnc3OCc3ccncc3)CC2)c1` [Example 8] returned an IC50 of 50 to 1000 nM.

`Nc1nccc(COc2nsnc2N2CCN(C(=O)Nc3ccc(F)c(Cl)c3)CC2)n1` [Example 253, 4-(4-{[(2-aminopyrimidin-4-yl)methyl]oxy}-1,2,5-thiadiazol-3-yl)-N-(3-chloro-4-fluorophenyl)piperazine-1-carboxamide] yielded an IC50 of 1000 to 10000 nM.

The compound `CCc1cccc(NC(=O)N2CCN(c3nc(C)ccc3OCc3ccnc(N)n3)CC2)c1` [Example 227, 4-(3-{[(2-aminopyrimidin-4-yl)methyl]oxy}-6-methylpyridin-2-yl)-N-(3-ethylphenyl)piperazine-1-carboxamide] came in with an IC50 of less than 50 nM.

The compound `O=C(Nc1nccc(COc2nsnc2N2CCN(C(=O)Nc3cc(C(F)(F)F)cc(C(F)(F)F)c3)CC2)n1)OCCN1CCCCC1` [Example 163, 2-piperidin-1-ylethyl {4-[({4-[4-({[3,5-bis(trifluoromethyl)phenyl]amino}carbonyl)piperazin-1-yl]-1,2,5-thiadiazol-3-yl}oxy)methyl]pyrimidin-2-yl}carbamate] yielded an IC50 of 50 to 1000 nM.

The compound `CCc1cccc(NC(=O)N2CCN(c3ncccc3OCc3ccnc(N)n3)CC2)c1` [Example 144, 4-(3-{[(2-aminopyrimidin-4-yl)methyl]oxy}pyridin-2-yl)-N-(3-ethylphenyl)piperazine-1-carboxamide] returned an IC50 of less than 50 nM.

`O=C(Nc1cc(C(F)(F)F)cc(C(F)(F)F)c1)N1CCN(c2nsnc2OCc2ccnc(NC3CC3)n2)CC1` [Example 123, N-[3,5-bis(trifluoromethyl)phenyl]-4-[4-({[2-(cyclopropylamino)pyrimidin-4-yl]methyl}oxy)-1,2,5-thiadiazol-3-yl]piperazine-1-carboxamide] gave an IC50 of less than 50 nM.

For `Nc1nccc(COc2cccnc2N2CCN(C(=O)Nc3cccc(C(F)(F)F)c3F)CC2)n1` [Example 195, 4-(3-{[(2-aminopyrimidin-4-yl)methyl]oxy}pyridin-2-yl)-N-[2-fluoro-3-(trifluoromethyl)phenyl]piperazine-1-carboxamide], the IC50 lay in the range of 50 to 1000 nM.

Turning to `CC1CN(c2nsnc2OCc2ccncc2)CCN1C(=O)Cc1cc(C(F)(F)F)ccc1C(F)(F)F` (stereo not drawn) [Example 61, 1-{[2,5-bis(trifluoromethyl)phenyl]acetyl}-2-methyl-4-{4-[(pyridin-4-ylmethyl)oxy]-1,2,5-thiadiazol-3-yl}piperazine], the IC50 was 50 to 1000 nM.

Compound `CN1CCN(CC(=O)Nc2cc(COc3nsnc3N3CCN(C(=O)Nc4cc(C(F)(F)F)cc(C(F)(F)F)c4)CC3)ccn2)CC1` [Example 155, N-[3,5-bis(trifluoromethyl)phenyl]-4-(4-{[(2-{[(4-methylpiperazin-1-yl)acetyl]amino}pyridin-4-yl)methyl]oxy}-1,2,5-thiadiazol-3-yl)piperazine-1-carboxamide] came in with an IC50 of less than 50 nM.

In turn, `O=C(CN1CCCC1)Nc1cc(COc2nsnc2N2CCN(C(=O)Nc3cc(C(F)(F)F)cc(C(F)(F)F)c3)CC2)ccn1` [Example 154, N-[3,5-bis(trifluoromethyl)phenyl]-4-{4-[({2-[(pyrrolidin-1-ylacetyl)amino]pyridin-4-yl}methyl)oxy]-1,2,5-thiadiazol-3-yl}piperazine-1-carboxamide] yielded an IC50 of less than 50 nM.

For the compound `CCc1cccc(NC(=O)N2CCN(c3nsnc3OCc3ccnc(NC(=O)OC)c3)CC2)c1` [Example 133, methyl [4-({[4-(4-{[(3-ethylphenyl)amino]carbonyl}piperazin-1-yl)-1,2,5-thiadiazol-3-yl]oxy}methyl)pyridin-2-yl]carbamate], the IC50 was less than 50 nM.

`CC1CN(c2nc3ccccc3nc2OCc2ccncc2)CCN1C(=O)Nc1cc(C(F)(F)F)cc(C(F)(F)F)c1` (stereo not drawn) [Example 74, N-[3,5-bis(trifluoromethyl)phenyl]-2-methyl-4-{3-[(pyridin-4-ylmethyl)oxy]quinoxalin-2-yl}piperazine-1-carboxamide]: the IC50 was 50 to 1000 nM.

Turning to `O=C(Nc1cc(C(F)(F)F)cc(C(F)(F)F)c1)N1CCCN(c2nccnc2OCc2ccncc2)CC1` [Example 75, N-[3,5-bis(trifluoromethyl)phenyl]-4-{3-[(pyridin-4-ylmethyl)oxy]pyrazin-2-yl}-1,4-diazepane-1-carboxamide], the IC50 was in the range of 50 to 1000 nM.

`CCc1cccc(NC(=O)N2CCN(c3nccnc3OCc3ccnc(N)n3)CC2)c1` [Example 201, 4-(3-{[(2-aminopyrimidin-4-yl)methyl]oxy}pyrazin-2-yl)-N-(3-ethylphenyl)piperazine-1-carboxamide] yielded an IC50 of less than 50 nM.

As for `COc1ccc(OC)c(NC(=O)N2CCN(c3nsnc3OCc3ccnc(N)n3)CC2)c1` [Example 254, 4-(4-{[(2-aminopyrimidin-4-yl)methyl]oxy}-1,2,5-thiadiazol-3-yl)-N-[2,5-bis(methyloxy)phenyl]piperazine-1-carboxamide], the IC50 was 1000 to 10000 nM.

The compound `Nc1nccc(COc2nccnc2N2CCN(C(=O)Nc3cc(Cl)cc(Cl)c3)CC2)n1` [Example 217, 4-(3-{[(2-aminopyrimidin-4-yl)methyl]oxy}pyrazin-2-yl)-N-(3,5-dichlorophenyl)piperazine-1-carboxamide] yielded an IC50 of less than 50 nM.

`Cc1cc(COc2nsnc2N2CCN(C(=O)Nc3cc(C(F)(F)F)cc(C(F)(F)F)c3)CC2)c2ccccc2n1` [Example 10] gave a concentration for half-maximal inhibition (IC50) not below 10000 nM.

On to `CN(C)c1cccc(COc2nsnc2N2CCN(C(=O)Nc3cc(C(F)(F)F)cc(C(F)(F)F)c3)CC2)c1` [Example 11, N-[3,5-bis(trifluoromethyl)phenyl]-4-[4-({[3-(dimethylamino)phenyl]methyl}oxy)-1,2,5-thiadiazol-3-yl]piperazine-1-carboxamide], for which the IC50 is not below 10000 nM.

Regarding `Nc1nccc(COc2ccc(Cl)nc2N2CCN(C(=O)Nc3cc(C(F)(F)F)cc(C(F)(F)F)c3)CC2)n1` [Example 244, 4-(3-{[(2-aminopyrimidin-4-yl)methyl]oxy}-6-chloropyridin-2-yl)-N-[3,5-bis(trifluoromethyl)phenyl]piperazine-1-carboxamide], the IC50 is less than 50 nM.

For `CC1CN(c2nc3ccccc3nc2OCc2ccncc2)CCN1C(=O)Nc1cccc(C(F)(F)F)c1` (stereo not drawn) [Example 76, 2-methyl-4-{3-[(pyridin-4-ylmethyl)oxy]quinoxalin-2-yl}-N-[3-(trifluoromethyl)phenyl]piperazine-1-carboxamide], the IC50 was in the range of 50 to 1000 nM.

`CNc1cc(COc2nsnc2N2CCN(C(=O)Nc3cc(C(F)(F)F)cc(C(F)(F)F)c3)CC2)ccn1` [Example 112, N-[3,5-bis(trifluoromethyl)phenyl]-4-[4-({[2-(methylamino)pyridin-4-yl]methyl}oxy)-1,2,5-thiadiazol-3-yl]piperazine-1-carboxamide] returned an IC50 of less than 50 nM.

`CCCCNc1cc(COc2nsnc2N2CCNCC2)ccn1` [Example 111, N-butyl-4-{[(4-piperazin-1-yl-1,2,5-thiadiazol-3-yl)oxy]methyl}pyridin-2-amine] registered an IC50 not below 10000 nM.

`Nc1nccc(COc2nsnc2N2CCN(C(=O)Nc3cccc(F)c3)CC2)n1` [Example 263, 4-(4-{[(2-aminopyrimidin-4-yl)methyl]oxy}-1,2,5-thiadiazol-3-yl)-N-(3-fluorophenyl)piperazine-1-carboxamide] showed an IC50 of 1000 to 10000 nM.

In the case of `Nc1nccc(COc2cccnc2N2CCN(C(=O)Nc3cc(C(F)(F)F)ccc3Cl)CC2)n1` [Example 192, 4-(3-{[(2-aminopyrimidin-4-yl)methyl]oxy}pyridin-2-yl)-N-[2-chloro-5-(trifluoromethyl)phenyl]piperazine-1-carboxamide], the IC50 is less than 50 nM.

With `Nc1nccc(COc2nsnc2N2CCN(C(=O)Nc3ccccc3)CC2)n1` [Example 230, 4-(4-{[(2-aminopyrimidin-4-yl)methyl]oxy}-1,2,5-thiadiazol-3-yl)-N-phenylpiperazine-1-carboxamide], the IC50 is not below 10000 nM.

The compound `Nc1nccc(COc2ccccc2N2CCN(C(=O)Nc3ccccc3)CC2)n1` [Example 270, 4-(2-{[(2-aminopyrimidin-4-yl)methyl]oxy}phenyl)-N-phenylpiperazine-1-carboxamide] gave an IC50 of 1000 to 10000 nM.

For the compound `CC(=O)N1CCN(c2ncccc2OCc2ccnc(NC(=O)CN3CCN(C)CC3)c2)CC1` [Example 185, N-[4-({[2-(4-acetylpiperazin-1-yl)pyridin-3-yl]oxy}methyl)pyridin-2-yl]-2-(4-methylpiperazin-1-yl)acetamide], the IC50 is not below 10000 nM.

On to `Nc1nccc(COc2nsnc2N2CCN(C(=O)Nc3cc(C(F)(F)F)cc(Cl)c3F)CC2)n1` [Example 248, 4-(4-{[(2-aminopyrimidin-4-yl)methyl]oxy}-1,2,5-thiadiazol-3-yl)-N-[3-chloro-2-fluoro-5-(trifluoromethyl)phenyl]piperazine-1-carboxamide], for which the IC50 is less than 50 nM.
